Laboratory results as given in PubChem BioAssay AID1963837 (Molecular Pharmacology Branch, DTP, NCI, 2024).

Tested on: 843126-344-R-J1-PDC complex spheroid viability
Assay: Anticancer human tumor 843126-344-R-J1-PDC patient-derived melanoma cell line growth inhibition [POLQ]
Settings: for IC50: curve of first compound; for viability, T/C: stronger effect = lower value
Method: Multicellular complex tumor spheroid response to Polymerase (POL) inhibitors (novobiocin, ART-558, RP6685) in combination with a variety of drugs and investigational agents in selected tumor cell lines
The POL inhibitors (novobiocin, ART-558, and RP6685) were evaluated both individually and in combination with standard of care and investigational anticancer small molecules within a complex spheroid model of solid tumors. . Complex spheroids include a stromal component modeled by human endothelial cells (HUVEC) and fibroblasts modeled by human mesenchymal stem cells (MSCs). The concentration ranges selected for each drug and investigational agent were based upon clinically achievable concentrations if the clinical Cmax of the agent was known.
Compounds. The drugs and investigational agents: novobiocin (NSC847541), ART-558 (NSC835418), RP-6685 (NSC848927), peposertib (NSC802822), ceralasertib (NSC780249), elimusertib (NSC800525), camonsertib (NSC841442), AZD-1390 (NSC803789), olaparib (NSC753686), talazoparib (NSC767125), rucaparib (NSC756644), sotorasib (NSC818433), MRTX-1133 (NSC836407), SN-38 (NSC673596), topotecan (NSC609699), epotoside (NSC141540), doxorubicin (NSC123127), gemcitabine (NSC613327), 5-fluorouracil (NSC19893), paclitaxel (NSC125973), vemurafenib (NSC761431), MSA-2 (NSC828583), SN-011 (NSC837082), adavosertib (NSC754352), prexasertib (NSC758257), carboplatin (NSC241240) and oxaliplatin (NSC266046), were obtained from the National Cancer Institute (NCI) Developmental Therapeutics Program Chemical Repository (21). The FDA-approved anticancer drug set is available from the Developmental Therapeutics Program at https://dtp.cancer.gov/organization/dscb/obtaining/. […] The stock solutions were prepared in dimethyl sulfoxide (DMSO, Sigma-Aldrich, St. Louis, MO, cat. D2650), except for the platinum compounds which were prepared in saline (Quality Biological, Gaithersburg, MD, cat. 114-055-101), at 800-fold the tested concentration and stored at -70 degrees C prior to their use. All drugs and investigational agents were tested over a range starting from a high concentration at or near the clinical Cmax and decreasing in half-log increments. If the clinical Cmax for an agent had not been determined, the highest concentration tested was 10 microM, except for SN-38, which was tested at a high concentration of 1 microM.
Cell Culture. All cells were maintained in an incubator at 37 degrees C and 5% CO2 with 95% humidity. The PDC lines were cultured according to standard operating procedures established by the NCI PDMR (https://pdmr.cancer.gov). Table 3 of the manuscript, lists the cell lines along with the number of the three cell types plated to form the mct-spheroids and media for tumor cell growth. After thawing, all PDC lines, except 997537-175-T-J1-PDC and 415267-285-R-J2-PDC, were cultured in Matrigel-coated flasks prepared with a working solution of 1X Ham's F-12 nutrient mix, without supplementation (Thermo Fisher Scientific, cat. 11765054), 100 U/mL penicillin-streptomycin (Thermo Fisher Scientific, cat. 15140122), and 2.5% Matrigel (Corning Inc., Corning, NY, cat. 354248) for the first three passages. The two PDC lines 997537-175-T-J1-PDC and 415267-285-R-J2-PDC were cultured on uncoated flasks. The 857933-349-R-J2-PDC line was cultured in 6C/Colon 1B media containing advanced DMEM/F-12 (Thermo Fisher Scientific, cat. 12634028), 10 mM HEPES (Thermo Fisher Scientific, cat. 15630080), 1X GlutaMAX supplement (Thermo Fisher Scientific, cat. 35050061), 0.1 mg/mL primocin (InvivoGen, San Diego, CA, cat. ant-pm-2), 10% defined fetal bovine serum, heat inactivated (HyClone Laboratories Inc., Logan, UT, cat. SH30070.03HI), 50% L-WRN conditioned media (ATCC, cat. CRL-3276), 1.25 mM N-Acetyl-L-cysteine (Sigma-Aldrich, cat. A9165), 10 mM nicotinamide (Sigma-Aldrich, cat. N0636), 1X B-27 supplement (Thermo Fisher Scientific, cat. 17504044), 1X N-2 supplement (Thermo Fisher Scientific, cat. […]

[1] = second compound 0.0316 µM, first compound 0.0316 µM
[2] = second compound 0.0316 µM, first compound 0.1 µM
[3] = second compound 0.0316 µM, first compound 0.316 µM
[4] = second compound 0.0316 µM, first compound 1 µM
[5] = second compound 0.0316 µM, first compound 3.16 µM
[6] = second compound 0.0316 µM, first compound 10 µM
[7] = second compound 0.1 µM, first compound 0.0316 µM
[8] = second compound 0.1 µM, first compound 0.1 µM
[9] = second compound 0.1 µM, first compound 0.316 µM
[10] = second compound 0.1 µM, first compound 1 µM
[11] = second compound 0.1 µM, first compound 3.16 µM
[12] = second compound 0.1 µM, first compound 10 µM
[13] = second compound 0.316 µM, first compound 0.0316 µM
[14] = second compound 0.316 µM, first compound 0.1 µM
[15] = second compound 0.316 µM, first compound 0.316 µM
[16] = second compound 0.316 µM, first compound 1 µM
[17] = second compound 0.316 µM, first compound 3.16 µM
[18] = second compound 0.316 µM, first compound 10 µM
[19] = second compound 1 µM, first compound 0.0316 µM
[20] = second compound 1 µM, first compound 0.1 µM
[21] = second compound 1 µM, first compound 0.316 µM
[22] = second compound 1 µM, first compound 1 µM
[23] = second compound 1 µM, first compound 3.16 µM
[24] = second compound 1 µM, first compound 10 µM
[25] = second compound 3.16 µM, first compound 0.0316 µM
[26] = second compound 3.16 µM, first compound 0.1 µM
[27] = second compound 3.16 µM, first compound 0.316 µM
[28] = second compound 3.16 µM, first compound 1 µM
[29] = second compound 3.16 µM, first compound 3.16 µM
[30] = second compound 3.16 µM, first compound 10 µM
[31] = second compound 10 µM, first compound 0.0316 µM
[32] = second compound 10 µM, first compound 0.1 µM
[33] = second compound 10 µM, first compound 0.316 µM
[34] = second compound 10 µM, first compound 1 µM
[35] = second compound 10 µM, first compound 3.16 µM
[36] = second compound 10 µM, first compound 10 µM
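Wherever viability, T/C is given: spheroids exposed to drugs for seven days before readout.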

Question: Which results are given for COc1cccc2c1C(=O)c1c(O)c3c(c(O)c1C2=O)CC(O)(C(=O)CO)CC3OC1CC(N)C(O)C(C)O1 (centres undefined) + COC1C(OC(N)=O)C(O)C(Oc2ccc3c(O)c(NC(=O)c4ccc(O)c(CC=C(C)C)c4)c(=O)oc3c2C)OC1(C)C?
Answer: IC50 (second compound 0.0316 µM): 332 nM; IC50 (second compound 0.1 µM): 320 nM; IC50 (second compound 0.316 µM): 295 nM; IC50 (second compound 1 µM): 328 nM; IC50 (second compound 3.16 µM): 404 nM; IC50 (second compound 10 µM): 303 nM; viability, T/C [1]: 80%; viability, T/C [2]: 81.3%; viability, T/C [3]: 50.5%; viability, T/C [4]: 14.6%; viability, T/C [5]: 4.71%; viability, T/C [6]: 3.86%; viability, T/C [7]: 84%; viability, T/C [8]: 85%; viability, T/C [9]: 49.2%; viability, T/C [10]: 13.5%; viability, T/C [11]: 3.97%; viability, T/C [12]: 3.88%; viability, T/C [13]: 103%; viability, T/C [14]: 71.8%; viability, T/C [15]: 58%; viability, T/C [16]: 14.1%; viability, T/C [17]: 4.21%; viability, T/C [18]: 4.82%; viability, T/C [19]: 98.3%; viability, T/C [20]: 77.2%; viability, T/C [21]: 56.2%; viability, T/C [22]: 13%; viability, T/C [23]: 4.55%; viability, T/C [24]: 3.9%; viability, T/C [25]: 87.6%; viability, T/C [26]: 77%; viability, T/C [27]: 60.2%; viability, T/C [28]: 16%; viability, T/C [29]: 5.73%; viability, T/C [30]: 4.31%; viability, T/C [31]: 88.6%; viability, T/C [32]: 77.6%; viability, T/C [33]: 49.9%; viability, T/C [34]: 15%; viability, T/C [35]: 4.64%; viability, T/C [36]: 3.44%

Question: For O=c1[nH]cc(F)c(=O)[nH]1 + COC1C(OC(N)=O)C(O)C(Oc2ccc3c(O)c(NC(=O)c4ccc(O)c(CC=C(C)C)c4)c(=O)oc3c2C)OC1(C)C, which IC50 (second compound 0.0316 µM) is on record?
Answer: Its IC50 is > 10000 nM.

Question: What about the IC50 (second compound 0.1 µM) of the same molecule?
Answer: The IC50 was > 10000 nM.

Question: And the IC50 (second compound 0.316 µM)?
Answer: Its IC50 is > 10000 nM.

Question: What about the IC50 (second compound 1 µM) of the same molecule?
Answer: The IC50 was > 10000 nM.

Question: What about the IC50 (second compound 3.16 µM) of the same molecule?
Answer: Its IC50 is > 10000 nM.

Question: What about the IC50 (second compound 10 µM) of the same molecule?
Answer: The IC50 was > 10000 nM.

Question: What about the viability, T/C [1] of the same molecule?
Answer: The viability, T/C was 97.9%.

Question: And the viability, T/C [2]?
Answer: Its viability, T/C is 76.6%.

Question: What about the viability, T/C [3] of the same molecule?
Answer: Its viability, T/C is 91.9%.

Question: What about the viability, T/C [4] of the same molecule?
Answer: Its viability, T/C is 102%.

Question: And the viability, T/C [5]?
Answer: The viability, T/C was 99.3%.

Question: And the viability, T/C [6]?
Answer: Its viability, T/C is 87.7%.

Question: What about the viability, T/C [7] of the same molecule?
Answer: The viability, T/C was 99.2%.

Question: And the viability, T/C [8]?
Answer: The viability, T/C was 99%.

Question: And the viability, T/C [9]?
Answer: The viability, T/C was 102%.

Question: And the viability, T/C [10]?
Answer: The viability, T/C was 84.2%.

Question: And the viability, T/C [11]?
Answer: Its viability, T/C is 82.7%.

Question: And the viability, T/C [12]?
Answer: The viability, T/C was 73.3%.

Question: What about the viability, T/C [13] of the same molecule?
Answer: Its viability, T/C is 92.4%.

Question: And the viability, T/C [14]?
Answer: The viability, T/C was 116%.

Question: And the viability, T/C [15]?
Answer: Its viability, T/C is 89.5%.

Question: And the viability, T/C [16]?
Answer: The viability, T/C was 81.7%.

Question: What about the viability, T/C [17] of the same molecule?
Answer: Its viability, T/C is 75.3%.

Question: What about the viability, T/C [18] of the same molecule?
Answer: The viability, T/C was 70.4%.

Question: And the viability, T/C [19]?
Answer: Its viability, T/C is 76.6%.

Question: What about the viability, T/C [20] of the same molecule?
Answer: Its viability, T/C is 85.4%.

Question: What about the viability, T/C [21] of the same molecule?
Answer: Its viability, T/C is 80.3%.

Question: What about the viability, T/C [22] of the same molecule?
Answer: Its viability, T/C is 90.2%.

Question: And the viability, T/C [23]?
Answer: Its viability, T/C is 92.8%.

Question: And the viability, T/C [24]?
Answer: The viability, T/C was 64.3%.

Question: And the viability, T/C [25]?
Answer: The viability, T/C was 94.2%.

Question: What about the viability, T/C [26] of the same molecule?
Answer: Its viability, T/C is 94.3%.

Question: And the viability, T/C [27]?
Answer: Its viability, T/C is 89.7%.

Question: What about the viability, T/C [28] of the same molecule?
Answer: The viability, T/C was 103%.

Question: What about the viability, T/C [29] of the same molecule?
Answer: The viability, T/C was 75.2%.

Question: What about the viability, T/C [30] of the same molecule?
Answer: Its viability, T/C is 70.4%.

Question: What about the viability, T/C [31] of the same molecule?
Answer: Its viability, T/C is 78.8%.

Question: And the viability, T/C [32]?
Answer: The viability, T/C was 88.1%.

Question: And the viability, T/C [33]?
Answer: The viability, T/C was 93%.

Question: What about the viability, T/C [34] of the same molecule?
Answer: The viability, T/C was 80.6%.

Question: And the viability, T/C [35]?
Answer: Its viability, T/C is 94.3%.

Question: What about the viability, T/C [36] of the same molecule?
Answer: Its viability, T/C is 71.5%.
